Reference: paper PMC10669340, “Bioactive Compounds from an Endophytic Pezicula sp. Showing Antagonistic Effects against the Ash Dieback Pathogen” (Biomolecules, 2023)
In brackets after ≈: the same amount, converted by molar mass. Read-outs that look alike come from different tables or passages of the source.

Tests used:
[1] = test system: Acinetobacter baumannii DSM 30008; assay: Antimicrobial serial dilution assay (MIC); assay type: cell-based; conditions: n.i.: no inhibition
Protocol: (§1) The antimicrobial activity (minimum inhibitory concentration, MIC) of the compounds was determined against Acinetobacter baumannii DSM 30008, Bacillus subtilis DSM 10, Chromobacterium violaceum DSM 30191, Escherichia coli DSM 1116, Mycobacterium smegmatis ATCC 700084, Pseudomonas aeruginosa PA14, Staphylococcus aureus DSM 346, Candida albicans DSM1665, Mucor hiemalis DSM 2656, Pichia anomala DSM 6766, Rhodotorula glutinis DSM 10134 and Schizosaccharomyces pombe DSM 70572 in a serial dilution assay as previously described.

Bacillus subtilis DSM 10 = assay: Antimicrobial serial dilution assay (MIC); assay type: cell-based; conditions: Bacillus subtilis DSM 10, n.i.: no inhibition; for MIC: DSM10, read-out: Minimum inhibitory concentration (MIC)
Protocol: as §1

Candida albicans DSM1665 = assay: Antimicrobial serial dilution assay (MIC); assay type: cell-based; conditions: n.i.: no inhibition
Protocol: as §1

[2] = test system: Chromobacterium violaceum DSM 30191; assay: Antimicrobial serial dilution assay (MIC); assay type: cell-based; conditions: n.i.: no inhibition
Protocol: as §1

[3] = test system: Escherichia coli DSM 1116; assay: Antimicrobial serial dilution assay (MIC); assay type: cell-based; conditions: n.i.: no inhibition
Protocol: as §1

Mucor hiemalis DSM 2656 = assay: Antimicrobial serial dilution assay (MIC); assay type: cell-based; conditions: Mucor hiemalis DSM 2656, n.i.: no inhibition; for MIC: DSM2656, read-out: Minimum inhibitory concentration (MIC)
Protocol: as §1

[4] = test system: Mycobacterium smegmatis ATCC 700084; assay: Antimicrobial serial dilution assay (MIC); assay type: cell-based; conditions: Mycobacterium smegmatis ATCC 700084; n.i.: no inhibition
Protocol: as §1

Pichia anomala DSM 6766 = assay: Antimicrobial serial dilution assay (MIC); assay type: cell-based; conditions: Pichia anomala DSM 6766; n.i.: no inhibition
Protocol: as §1

[5] = test system: Pseudomonas aeruginosa PA14; assay: Antimicrobial serial dilution assay (MIC); assay type: cell-based; conditions: n.i.: no inhibition
Protocol: as §1

[6] = test system: Rhodotorula glutinis DSM 10134; assay: Antimicrobial serial dilution assay (MIC); assay type: cell-based; conditions: Rhodotorula glutinis DSM 10134, n.i.: no inhibition
Protocol: as §1

[7] = test system: Schizosaccharomyces pombe DSM 70572; assay: Antimicrobial serial dilution assay (MIC); assay type: cell-based; conditions: Schizosaccharomyces pombe DSM 70572; n.i.: no inhibition
Protocol: as §1

[8] = test system: Staphylococcus aureus DSM 346; assay: Antimicrobial serial dilution assay (MIC); assay type: cell-based; conditions: Staphylococcus aureus DSM 346, n.i.: no inhibition; for MIC: DSM346, read-out: Minimum inhibitory concentration (MIC)
Protocol: as §1

MTT cytotoxicity assay = assay type: cell-based; conditions: read-out: Cytotoxic activity (IC50)
Protocol: (§2) The in vitro cytotoxicity assay was performed using the MTT (3-(4,5-dimethylthiayol-2-yl)-2,5-diphenyltetrazolium bromide) test in 96-well microtiter plates as previously described.

[9] = test system: panel of bacteria and fungi; assay: Antimicrobial serial dilution assay, whole panel (summary statements); assay type: cell-based
Protocol: as §1

[10] = test system: panel of mammalian cell lines; assay: MTT cytotoxicity assay, panel (summary statements); assay type: cell-based; conditions: 4–6 only KB3.1 and L929
Protocol: as §2

[11] = test system: H. fraxineus (isolate RH02-T6-B4-2); assay: Agar disc diffusion assay; assay type: cell-based, Hymenoscyphus fraxineus; conditions: 6 mm disc, 7 days, 21 °C, n.i.: no inhibition
Protocol: The antifungal activity of the isolated compounds against H. fraxineus was assessed by the disc diffusion method using 9 cm diameter petri dishes as previously described […] Three sterile filter paper discs per plate were gently placed on dried potato–dextrose agar. The fungicide nystatin was applied as the positive control (20 and 50 µg/paper disc) and methanol as the negative control (10 µL/paper disc). The test plates were incubated at 21 °C for 7 days, the inhibition diameters were measured, and the activity was evaluated compared to nystatin.
Figure S44: Agar disc (6 mm diam.) diffusion assay of compound CJ-17,572 (1) against H. fraxineus RH02-T6-B4-2, grown in 9-cm petri dishes on agar-based PD
medium with H. fraxineus, N - positive control nystatin, M - negative control methanol, CJ – 1.
Table S1. Antifungal activity of the compounds 1-6. n.i.: no inhibition, n.t.: not tested.
Compounds Amount ( µg/paper disc)
Peziculastatin n.t. n.i. 8 mm
Mycorrhizin A 19 mm 31 mm n.t.
Cryptosporioptide A n.t. n.i. n.i.
Cryptosporioptide B n.t. n.i. 8 mm
Cryptosporioptide C n.t. n.i. n.i.
Nystatin 21 mm 24 mm n.t.

[12] = test system: Staphylococcus aureus DSM 1104 preformed biofilm; assay: Biofilm assay, dispersal of preformed biofilm; assay type: cell-based; design: Antibiofilm activity, preformed S. aureus: unit not given here; conditions: for Antibiofilm activity, preformed S. aureus: (/) no activity
Protocol: Staphylococcus aureus DSM 1104 from −20 °C stock was cultured in 25 mL CASO (Casein–Peptone Soymeal–Peptone; peptone from casein 15 g/L, peptone from soy flour 5 g/L, NaCl 5 g/L, pH 7.3) medium at 37 °C at 100 rpm in 250 mL for 20 h. The precultured suspension of S. aureus was adjusted so that its OD600 matched the turbidity of a 0.001 McFarland standard. S. aureus was incubated in 96-well tissue microtiter plates (TPP tissue culture ref.no 92196, Switzerland) for 24 h at 150 rpm in […] CASO medium with 4% glucose broth. The supernatant was removed from the wells and 150 μL of the respective media (fresh) was added to the wells, together with the serially diluted compounds (250–2 μg/mL). The plates were incubated for a further 24 h at 37 °C. Staining of the biofilms was carried out as described previously. Standard deviation (SD) of two repeats with duplicates each were 10% or less. Methanol (2.5%) and microporenic acid A (250–2 μg/mL) were used as solvent and positive controls. Error bars indicate SD with duplicates in two biological repeats.

[13] = test system: Candida albicans DSM 11225 biofilm; assay: Biofilm assay, inhibition of biofilm formation; assay type: cell-based; conditions: (/) no activity
Protocol: The stock of fungal pathogen Candida albicans DSM 11225 from −20 °C was cultured in 25 mL YPD (Yeast extract Peptone Dextrose; dextrose 20 g/L, peptone 20 g/L, yeast extract 10 g/L) medium in a 250 mL flask at 30 °C with shaking 100 rpm for 18 h. Turbidity of the broth was measured and diluted to match the turbidity of a 0.05 McFarland standard in RPMI 1640 medium (Gibco, New York, NY, USA, Thermo Fisher Scientific). Afterwards, 150 μL of the fungal dispersion was added into each well of a 96-well microtiter plate (Falcon no. 351172, Thermo Fisher Scientific) and further incubated for 90 min. The supernatant was removed, and the plate was washed once by using PBS buffer. Compounds were serially diluted in 150 μL in fresh medium to concentrations of 250–2 μg/mL. Staining and analysis were conducted as previously described. Methanol (2.5%) and farnesol (250–2 μg/mL) were used as solvent and positive controls. Error bars indicate SD with duplicates in two biological repeats.

Row | Structure (SMILES) | Minimum inhibitory concentration (MIC) [1] | MIC (Bacillus subtilis DSM 10) | Minimum inhibitory concentration (MIC) (Candida albicans DSM1665) | Minimum inhibitory concentration (MIC) [2] | Minimum inhibitory concentration (MIC) [3] | MIC (Mucor hiemalis DSM 2656) | Minimum inhibitory concentration (MIC) [4] | Minimum inhibitory concentration (MIC) (Pichia anomala DSM 6766) | Minimum inhibitory concentration (MIC) [5] | Minimum inhibitory concentration (MIC) [6] | Minimum inhibitory concentration (MIC) [7] | MIC [8] | antimicrobial activity against the tested microorganisms (in words) [9] | Antifungal activity, inhibition diameter ([11]; 50 µg/paper disc) | Antifungal activity, inhibition diameter ([11]; 100 µg/paper disc) | other results
1 | COC1=C(C(=O)[C@@]2(C)[C@@H](C)C=C[C@H]3C[C@@H](C)CC[C@@H]32)C(=O)N(C)[C@H]1[C@@H](C)O [Compound 7, 4′-methyl-CJ-17,572] | n.i. | 8.3 µg/mL (≈ 22.1 µM) | n.i. | n.i. | n.i. | 66.6 µg/mL (≈ 177 µM) | n.i. | n.i. | n.i. | n.i. | n.i. | 33.3 µg/mL (≈ 88.7 µM) | weak antimicrobial activity | – | – | IC50 (MTT cytotoxicity assay; human, A431): 24 µM; IC50 (MTT cytotoxicity assay; human, A549): 10 µM; IC50 (MTT cytotoxicity assay; human, KB3.1, n.c.: no cytotoxicity): 6.4 µM; IC50 (MTT cytotoxicity assay; human, MCF-7): 9.6 µM; IC50 (MTT cytotoxicity assay; human, PC-3): 9.1 µM; IC50 (MTT cytotoxicity assay; human, SKOV-3): 14 µM; IC50 (MTT cytotoxicity assay; mouse, L929, n.c.: no cytotoxicity): 32 µM; cytotoxicity against the tested cell lines (in words) [10]: active against all the tested cell lines
2 | CCC(C(=O)O)C(=O)OC1C2(C)Oc3ccc(-c4ccc5c(c4O)C(=O)C4=C(O)C6OC6(C)C(OC(=O)CC(=O)O)C4(C)O5)c(O)c3C(=O)C2=C(O)C2OC21C (stereo not shown) [Compound 5, Cryptosporioptide B] | n.i. | – | n.i. | n.i. | n.i. | – | n.i. | n.i. | n.i. | n.i. | n.i. | – | – | n.i. | 8 mm | Minimum inhibitory concentration (MIC) (Bacillus subtilis DSM 10): n.i.; Minimum inhibitory concentration (MIC) (Mucor hiemalis DSM 2656): n.i.; Minimum inhibitory concentration (MIC) [8]: n.i.; Antibiofilm activity, preformed S. aureus ([12]; 7.8 µg/mL): 54; Antibiofilm activity, preformed S. aureus ([12]; 15.6 µg/mL): 75; Antibiofilm activity, preformed S. aureus ([12]; 62.5 µg/mL): 83; Antibiofilm activity, preformed S. aureus ([12]; 125 µg/mL): 81; Antibiofilm activity, preformed S. aureus ([12]; 250 µg/mL): 49; efficacy of biofilm eradication, preformed biofilms of S. aureus ([12]; concentrations between 15.6 µg/mL–125 µg/mL): 70–80%; Antibiofilm activity, C. albicans ([13]; 62.5 µg/mL): 49; Antibiofilm activity, C. albicans ([13]; 125 µg/mL): 50; Antibiofilm activity, C. albicans ([13]; 250 µg/mL): 74
3 | CCCCCCC(C)/C=C/C=C/C=C/C(=O)N[C@H](C(=O)O)[C@H](O)c1ccccc1O (relative stereo) [Compound 2, peziculastatin] | n.i. | 33.3 µg/mL (≈ 80.1 µM) | n.i. | n.i. | n.i. | 33.3 µg/mL (≈ 80.1 µM) | n.i. | n.i. | n.i. | – | n.i. | 16.6 µg/mL (≈ 39.9 µM) | moderate to weak antifungal activity | n.i. | 8 mm | MIC ([6]; DSM10134, read-out: Minimum inhibitory concentration (MIC)): 33.3 µg/mL (≈ 80.1 µM); IC50 (MTT cytotoxicity assay; human, A431 squamous cell carcinoma cells): 53 µM; IC50 (MTT cytotoxicity assay; human, A549 lung carcinoma cells): 41 µM; IC50 (MTT cytotoxicity assay; human, KB3.1 endocervical adenocarcinoma cells, n.c.: no cytotoxicity): 17 µM; IC50 (MTT cytotoxicity assay; human, MCF-7 breast adenocarcinoma cells): 11 µM; IC50 (MTT cytotoxicity assay; mouse, L929 fibroblast cells, n.c.: no cytotoxicity): 53 µM
